The text below walks through data of paper PMC2362735, “New semisynthetic vinca alkaloids: chemical, biochemical and cellular studies” (British Journal of Cancer, 1999).

The subject of series [1] is Mouse leukaemia P388 cells. The experiment in a line: In vivo anti-tumour effect on P388 mouse leukaemia, single i.p. dose. As to conditions: P388 mice, single dose i.p. The text has this: The numerous antimitotic drugs already developed and therapeu- tically used for a large number of pathologies belong to different classes based on their chemical structure and other distinctive features. Antimitotic drugs usually target the tubulin/microtubule network of the cytoskeleton that is formed by assembly of cyto- plasmic tubulin dimers. The stability of the different microtubular structures varies considerably; some of their functions depend on their lability. The lability is augmented by the extreme sensitivity to various drugs. Several synthetic and natural compounds interact specifically with tubulin and/or microtubule, fundamentally destroying its dynamic character and leading to cell death. […] Because of their extensive clinical use, it is important to synthesize additional agents having at least the same biological activity. […] Nevertheless, it is unclear yet how the anti-calmodulin activity of these drugs is related to their desired and undesired pharmacological effects. […] The synthesis of the KAR derivatives are presented. […] Taxol, GTP and trifluoperazine were purchased from Sigma. All organic reagents for synthesis of the new compounds were obtained from Aldrich and were of the highest grade. All other chemicals were reagent grade commercial preparations. […] Tubulin was stored in 1 M sucrose, 10 mM sodium phosphate buffer, 0.5 mM magnesium chloride and 0.1 mM GTP, pH 7.0, at -80C and dialysed against the appropriate buffer before use. […] PFK, aldolase and glycerol-3-phosphate dehydrogenase- triosephosphate isomerase purified from rabbit skeletal muscle were purchased in ammonium sulphate suspensions from Sigma or Boehringer. The enzyme suspensions were centrifuged at 10 000g for 5 min. The pellets were suspended in the appropriate buffer, then the enzymes were gel filtered or dialysed in the same buffer to remove ammonium sulphate. […] (Figure 1B; R1 , CH3; R2 , CH2 CH2 Cl). […] After 2 h incubation at room temperature, 200 ml dried toluene was added to the reaction mixture. […] The mixture was stirred for 30 min. After separation of the organic phase, it was washed with water (3 x 30 ml) and dried with potassium sulphate and evaporated on a water bath of 35-40C at 20-27 hPa. The resulting material was chromatographed on silica gel (500 g, bead size of 0.040- 0.063 mm) column (30 mm x 500 mm) using ethyl acetate/ethanol (9:1) mixture as eluent. […] The mixture was kept for 4 h at room temperature and then evaporated on a water bath at 40C under a vacuum of 80 hPa to a final volume of 5-6 ml. […] (Figure 1B, R1 , CHO; R2 , CH2 CH2 Cl). […] Synthesis of KAR-4 [3-allyl-2,4-dioxo-3,5-spiro-oxazolidino- 4-deacetoxy-vinblastine] (Figure 1B; R1 , CH3; R2 , CH2 CH=CH2 ). […] NMR measurements were carried out on a Varian Unity plus-500 instrument (500 MHz for 1H and 125 MHz for 13C) in DMSO. Chemical shifts were determined relative to dTMS = 0.00 p.p.m. 1H and 13C signal assignments were verified by a concerted use of two-dimensional 1H-1H and 1H-13C shift correlation methods (DQFCOSY, HSQC, HMBC) and NOESY experiments. The gradient-enhanced DQFCOSY, HSQC, HMBC and NOESY experiments were recorded by using the standard spectrometer software package. A mixing time of tmix = 0.5 s was used for the NOESY experiments.

Another series deals with T1, calmodulin (Bos taurus, UniProt P62157).
T1 construct: Calmodulin from bovine brain was purified to homogeneity using Phenyl-Sepharose (Pharmacia) chromatography; from tissue; host or cells: bovine brain
The series can be described thus: Anti-calmodulin activity assay: calmodulin-induced PFK inactivation. Format: biochemical, bovine. As to conditions: drug 20 M. The text has this: The numerous antimitotic drugs already developed and therapeu- tically used for a large number of pathologies belong to different classes based on their chemical structure and other distinctive features. Antimitotic drugs usually target the tubulin/microtubule network of the cytoskeleton that is formed by assembly of cyto- plasmic tubulin dimers. The stability of the different microtubular structures varies considerably; some of their functions depend on their lability. The lability is augmented by the extreme sensitivity to various drugs. Several synthetic and natural compounds interact specifically with tubulin and/or microtubule, fundamentally destroying its dynamic character and leading to cell death. […] Because of their extensive clinical use, it is important to synthesize additional agents having at least the same biological activity. […] Nevertheless, it is unclear yet how the anti-calmodulin activity of these drugs is related to their desired and undesired pharmacological effects. […] The synthesis of the KAR derivatives are presented. […] Taxol, GTP and trifluoperazine were purchased from Sigma. All organic reagents for synthesis of the new compounds were obtained from Aldrich and were of the highest grade. All other chemicals were reagent grade commercial preparations. […] Tubulin was stored in 1 M sucrose, 10 mM sodium phosphate buffer, 0.5 mM magnesium chloride and 0.1 mM GTP, pH 7.0, at -80C and dialysed against the appropriate buffer before use. […] PFK, aldolase and glycerol-3-phosphate dehydrogenase- triosephosphate isomerase purified from rabbit skeletal muscle were purchased in ammonium sulphate suspensions from Sigma or Boehringer. The enzyme suspensions were centrifuged at 10 000g for 5 min. The pellets were suspended in the appropriate buffer, then the enzymes were gel filtered or dialysed in the same buffer to remove ammonium sulphate. […] (Figure 1B; R1 , CH3; R2 , CH2 CH2 Cl). […] After 2 h incubation at room temperature, 200 ml dried toluene was added to the reaction mixture. […] The mixture was stirred for 30 min. After separation of the organic phase, it was washed with water (3 x 30 ml) and dried with potassium sulphate and evaporated on a water bath of 35-40C at 20-27 hPa. The resulting material was chromatographed on silica gel (500 g, bead size of 0.040- 0.063 mm) column (30 mm x 500 mm) using ethyl acetate/ethanol (9:1) mixture as eluent. […] The mixture was kept for 4 h at room temperature and then evaporated on a water bath at 40C under a vacuum of 80 hPa to a final volume of 5-6 ml. […] (Figure 1B, R1 , CHO; R2 , CH2 CH2 Cl). […] Synthesis of KAR-4 [3-allyl-2,4-dioxo-3,5-spiro-oxazolidino- 4-deacetoxy-vinblastine] (Figure 1B; R1 , CH3; R2 , CH2 CH=CH2 ). […] NMR measurements were carried out on a Varian Unity plus-500 instrument (500 MHz for 1H and 125 MHz for 13C) in DMSO. Chemical shifts were determined relative to dTMS = 0.00 p.p.m. 1H and 13C signal assignments were verified by a concerted use of two-dimensional 1H-1H and 1H-13C shift correlation methods (DQFCOSY, HSQC, HMBC) and NOESY experiments. The gradient-enhanced DQFCOSY, HSQC, HMBC and NOESY experiments were recorded by using the standard spectrometer software package. A mixing time of tmix = 0.5 s was used for the NOESY experiments. […] Mass spectrum was recorded on a Kratos MS 80 instrument using FAB.

For the compound `CC[C@]1(O)C[C@@H]2CN(CCc3c([nH]c4ccccc34)[C@@](C(=O)OC)(c3cc4c(cc3OC)N(C)[C@@H]3[C@]45CCN4CC=C[C@@](CC)(C[C@@]36OC(=O)N(CCCl)C6=O)[C@H]45)C2)C1` [KAR-2, 3′-(β-chloroethyl)-2′,4′-dioxo-3,5′-spiro-oxazolidino-4-deacetoxy-vinblastine], in series [1], the maximal tolerated dose worked out at 80 mg/kg. Further, on calmodulin (PFK 1.2 M protomers, calmodulin 3 M, 60 min, without calmodulin 66.6 U mg-1, with calmodulin 8.0 U mg-1), the “Effect on calmodulin induced PFK inactivation: Activity (U mg-1)” value is on record as 11.1 U mg-1. Moreover, the “anti-calmodulin activity in the PFK assay (in words)” value at calmodulin is listed as “does not display anti-calmodulin activity”. At calmodulin (calculated from the activity data (100% = PFK without calmodulin, 0% = PFK with calmodulin)), the “Anti-calmodulin activity: Efficiency (%)” value is 5%.
